In ChEMBL document CHEMBL1148945, “Isolation of cytochrome P450 inhibitors from strawberry fruit, Fragaria ananassa” (J Nat Prod, 2004):
pIC50: −log10 of the molar value.

The molecules below were run against Cytochrome P450 3A4 (Homo sapiens, UniProt P08684) (assay: Inhibition of human CYP3A4).
Assay type: ADME

Chain of Cytochrome P450 3A4 (P08684 whole entry): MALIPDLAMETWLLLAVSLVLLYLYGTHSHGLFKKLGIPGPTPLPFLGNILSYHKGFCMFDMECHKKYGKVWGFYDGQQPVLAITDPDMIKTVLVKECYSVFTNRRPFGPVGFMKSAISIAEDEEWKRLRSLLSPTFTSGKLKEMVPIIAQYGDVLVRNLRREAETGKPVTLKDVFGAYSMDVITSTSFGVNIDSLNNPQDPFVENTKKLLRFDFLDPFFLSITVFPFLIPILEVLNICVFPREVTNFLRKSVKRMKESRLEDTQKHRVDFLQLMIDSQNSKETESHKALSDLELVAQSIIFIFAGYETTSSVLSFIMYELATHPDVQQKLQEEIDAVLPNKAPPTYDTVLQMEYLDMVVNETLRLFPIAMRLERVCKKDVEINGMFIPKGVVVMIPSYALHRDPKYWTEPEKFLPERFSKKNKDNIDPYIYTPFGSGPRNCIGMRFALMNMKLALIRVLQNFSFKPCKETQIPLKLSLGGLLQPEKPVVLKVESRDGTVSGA

pIC50	Structure (SMILES)
3.92	CC(C)CC(=O)c1c(O)cc(O)cc1O[C@@H]1O[C@H](CO)[C@@H](O)[C@H](O)[C@H]1O
6.15	O=C(/C=C\c1ccc(O)cc1)OC[C@H]1O[C@@H](Oc2c(-c3ccc(O)cc3)oc3cc(O)cc(O)c3c2=O)[C@H](O)[C@@H](O)[C@@H]1O
6.15	O=C(/C=C/c1ccc(O)cc1)OC[C@H]1O[C@@H](Oc2c(-c3ccc(O)cc3)oc3cc(O)cc(O)c3c2=O)[C@H](O)[C@@H](O)[C@@H]1O [TILIROSIDE]
